For assay [1], the system named is wild-type TynA with M83Y FeaR. In words: PtynA-GFP reporter, wild-type TynA with M83Y FeaR (pCX068). It counts as cell-based, E. coli MG1655. The settings on record: pCX008, pCX068, FIG. 6D, 24 h. How it is done:
(§1) Flow cytometry was performed as previously described. […] Cytometry data was gated by forward and side scatter.

The test system of assay [2] is sensor systems containing FeaR-KA. In words: GFP fluorescence from PtynA in part-swapped sensor systems containing FeaR-KA. To be noted: 0.5 mM, 24 h, FIG. 31. It counts as cell-based, Klebsiella aerogenes. An excerpt: FIG. 31. […] PtynA from MG or KP/KA was regulated by TynA from MG or KP and FeaR from MG or KA. […] Values and error bars are the average and standard deviation of biological triplicate, respectively.
Tryptamine specific biosensors were first designed by genetic parts swapping. Three types of tynA and feaR genes from E. coli K-12 MG1655 (MG), Klebsiella aerogenes (KA), and Klebsiella pneumoniae (KP), and two types of PtynA sequences were chosen and tested in 18 different combinations (see e.g., FIG. 30). PtynA-KP/KA was constructed by replacing the FeaR binding sites of PtynA-MG with those from Klebsiella species.
Moreover, a Tryptamine specific variant I109N was discovered using a sensor system with PtynA-MG, TynA-KP and FeaR-KA as the wild type (VVT) for further directed evolution (see e.g., FIG. 32). […] Transfer curves for the tryptamine-specific FeaR-KA I109N sensor after 5 or 24 hours of induction further illustrate the specificity of the sensor for tryptamine (see e.g., FIG. 33A-FIG. 33B).

The target of a further assay is T1, WT TrpR (Escherichia coli, UniProt P0A881).
T1 construct: trpR (WT); expressed in transfected cells; host or cells: E. coli Nissle 1917 (EcN), genomic trpR knocked out; plasmid pMBA035 (P17-trpR)
In words: WT TrpR system, repression of GFP expression. It is filed as cell-based, E. coli. An excerpt: Among the various aspects of the present disclosure is the provision of systems and methods for detecting aromatic compounds. An aspect of the present disclosure provides for a method of protein engineering (e.g., a regulator protein) comprising: mutagenizing specific amino acids in and around a ligand-binding site of a protein, wherein the mutagenizing enables changes in ligand-protein binding specificity while maintaining protein-DNA interaction and thus downstream gene expression control; and/or linking ligand-protein binding to output response. An aspect of the present disclosure provides for an engineered molecular sensor. […] In some embodiments, the engineered regulator protein or the ligand-protein binding site or a sequence encoding the engineered regulator protein or the ligand-protein binding site of the engineered regulator protein is at least about 80% identical to a WT regulator protein or a WT regulator ligand-protein binding site; or a sequence encoding the engineered regulator protein or ligand binding site thereof is at least about 80% identical to a sequence encoding the WT regulator protein or the WT regulator ligand-protein binding site; or functional fragment thereof, the engineered regulator protein having ligand binding activity. In some embodiments, the engineered molecular sensor is optionally genomically integrated into a microorganism, optionally selected from a probiotic or is a purified cell-free sensor. In some embodiments, the engineered regulator protein or enzyme is an engineered TrpR, TyrR, TynA, or FeaR protein. […] In some embodiments, the engineered regulator protein is an engineered TrpR and is a tryptophan (Trp)-, 5-hydroxytryptophan (5-HTP)-, or tryptamine (Trpta)-specific sensor. In some embodiments, the engineered regulator protein or enzyme is an engineered TrpR, TyrR, TynA, or FeaR, and/or wherein the engineered TrpR, TyrR, TynA, or FeaR comprises at least one mutation to a ligand-protein binding site having specific amino acid binding activity. […]

Assay [3] deals with wild-type TynA with W110C FeaR. It counts as cell-based, E. coli MG1655. To be noted: W110C FeaR; 24 h; FIG. 28D. As for the experimental part:
as §1

Assay [4] relates to wild-type TynA with L108T FeaR. It is filed as cell-based, E. coli MG1655. The settings on record: L108T FeaR; 24 h; FIG. 28B. As for the experimental part: as §1
In assay [5] the test system is wild-type TynA with W110S FeaR. It counts as cell-based, E. coli MG1655. The settings on record: W110S FeaR; 24 h; FIG. 28C. How it is done:
as §1

Assay [6] has as its system wild-type TynA with M83Q FeaR. It counts as cell-based, E. coli MG1655. To be noted: M83Q FeaR; 24 h; FIG. 28A. As for the experimental part:
as §1

Two compounds from US20220372585A1, “Sensors for Aromatic Compounds and Methods of Making and Using Same” (Washington University, priority 2021, published 2022) can be followed below.

Structures are written as SMILES.

Consider `NCCc1ccccc1` [Phenylethylamine, phenylethylamine], for which, in assay [1], the Fmax stood at 1004, the Fmin was found to be 5.8 and the “n (Hill coefficient)” value was determined as 2.1.

Regarding `NCCc1c[nH]c2ccccc12` [Tryptamine, tryptamine], in assay [2], the fluorescence intensity entry was “significant enhancement of fluorescence intensity”. In addition, the “fold repression of GFP expression” value on WT TrpR came to 7 fold. Besides, the response result in assay [3], in assay [4], in assay [5] and in assay [6] was “lack of response” in each case.
